Reference: patent US5444057A, “Carbapenem-antibiotic compounds” (Zeneca Limited, priority 1992, dated 1995)
Converted amounts (≈) assume the structure as drawn.

Tests used:
bacteria = details: cited from earlier work
S. aureus Oxford = assay: MIC by agar dilution, S. aureus Oxford; format: cell-based; details: Staphylococcus aureus, Diagnostic Sensitivity Test, inoculum 10^4 CFU/spot
From the text: (§1) The antibacterial activity is described in terms of the minimum inhibitory concentration (MIC) determined by the agar-dilution technique with an inoculum size of 10^4 CFU/spot.

E. coli DCO = assay: MIC by agar dilution, E. coli DCO; format: cell-based; details: Escherichia coli, Diagnostic Sensitivity Test, inoculum 10^4 CFU/spot
From the text: as §1

P. morganii I + 001 = assay: MIC by agar dilution, P. morganii I + 001; format: cell-based; details: Morganella morganii, Diagnostic Sensitivity Test, inoculum 10^4 CFU/spot
From the text: as §1

[1] = system: Enterobacter cloacae P99-; assay: MIC by agar dilution, Enterobacter cloacae P99-; format: cell-based
From the text: as §1

B. fragilis AMP S = assay: MIC by agar dilution, B. fragilis AMP S; format: cell-based; details: Bacteroides fragilis, Diagnostic Sensitivity Test, inoculum 10^4 CFU/spot
From the text: as §1

| SMILES | antibacterial activity (bacteria) | MIC (S. aureus Oxford) [µg/mL] | MIC (E. coli DCO) [µg/mL] | MIC (P. morganii I + 001) [µg/mL] | MIC [1] [µg/mL] | MIC (B. fragilis AMP S) [µg/mL] |
| --- | --- | --- | --- | --- | --- | --- |
| C[C@@H](O)[C@H]1C(=O)N2C(C(=O)O)=C(SCCN=CN)C[C@H]12 [imipenem, N-formimidoyl thienamycin] | broad spectrum of antibacterial activity |  |  |  |  |  |
| C[C@@H](O)[C@H]1C(=O)N2C(C(=O)O)=C(S[C@@H]3CN[C@H](C(=O)Nc4ccc(C(=O)O)cn4)C3)[C@H](C)[C@H]12 [Example 4, (1R,5R,6S,8S,2'S,4'S)-2-(2-(5-Carboxy-2-pyridylcarbamoyl)pyrrolidin-4-ylthio)-6-(1-hydroxyethyl)-1-methylcarbapenem-3-carboxylic acid] |  | 0.13 (≈ 0.273 µM) | 0.02 (≈ 0.042 µM) | 0.02 | 0.02 (≈ 0.042 µM) | 0.25 (≈ 0.525 µM) |
